Assay results: patent US6773721B1, “Osmotic caplet” (ALZA Corporation, priority 1992, dated 2004)

experiment: Osmotic pressure of saturated solutions by vapor pressure osmometer; assay type: physicochemical; settings: saturated solution in water at 37° C.; Model 320B Vapor Pressure Osmometer
Protocol: The osmagent is initially present in excess and it can be any physical form such as particle, crystal, pellet, tablet, strip, film or granule. […] In the table, the osmotic pressure π, is in atmospheres, ATM. The osmotic pressure is measured in a commercially available osmometer that measures the vapor pressure difference between pure water and the solution to be analyzed, and according to standard thermodynamic principles, the vapor pressure ratio is converted into osmotic pressure difference. […] The osmometer used for the present measurements is identified as Model 320B, Vapor Pressure Osmometer, manufactured by Hewlett Packard Co., Avondale, Pa.

Compound	OSMOTIC PRESSURE [ATM]
O=C(CO)[C@@H](O)[C@H](O)[C@H](O)CO [Fructose]	355
OC[C@@H](O)[C@@H](O)[C@H](O)[C@H](O)CO [Mannitol]	38
[Cl-].[K+] [Potassium Chloride]	245
O=S(=O)([O-])[O-].[K+].[K+] [Potassium Sulfate]	39
[Cl-].[Na+] [Sodium Chloride]	356
O=P([O-])([O-])O.[Na+].[Na+] [Sodium Phosphate Dibasic Anhydrous]	29
O.O.O.O.O.O.O.O=P([O-])([O-])O.[Na+].[Na+] [Sodium Phosphate Dibasic.7H2O]	31
O.O.O.O.O.O.O.O.O.O.O.O.O=P([O-])([O-])O.[Na+].[Na+] [Sodium Phosphate Dibasic.12H2O]	31
O.O.O.O.O.O.O.O.O.O.O.O.O=P([O-])([O-])[O-].[Na+].[Na+].[Na+] [Sodium Phosphate Tribasic.12H2O]	36
Sodium Phosphate Monobasic.H2O	28
